Assay results published in patent US20220267380A1, “Glycopeptides Increasing Lipid Synthesis” (TFCHEM, priority 2019, published 2022).

System: normal human dermal fibroblasts (NHDF)
Experiment: Gene expression in NHDF, full transcriptome analysis with Affymetrix U219 microarray
Format: cell-based
Settings: NHDF
[1] = relative expression adjusted to detection limit (<20), 10 mg/ml, 24 h

CC(=O)N(CCCC[C@H](N)C(=O)O)CC(F)(F)[C@]1(O)O[C@H](CO)[C@H](O)[C@H](O)[C@H]1O [Compound 4]
effect of treatment of NHDF on lipid synthesis (transcriptional): up regulation of lipids synthesis, including fatty acids, cholesterol or ceramides
Fold change, CYP51A1///LRRD1 (10 mg/ml, 24 h, vs control): 2.38
Fold change, DHCR7 (10 mg/ml, 24 h, vs control): 3.24
Fold change, HMGCS1 (10 mg/ml, 24 h, vs control): 2.39
Fold change, HSD17B7 (10 mg/ml, 24 h, vs control): 2.43
Fold change, MVD (10 mg/ml, 24 h, vs control): 2.77
Fold change, SC5D (10 mg/ml, 24 h, vs control): 2.06
Fold change, SREBF1 (10 mg/ml, 24 h, vs control): 3.15
Fold change, POR (10 mg/ml, 24 h, vs control, Affymetrix probe set 11716114_x_at): 3.68
Fold change, G6PD (10 mg/ml, 24 h, vs control, Affymetrix probe set 11716292_a_at): 2.53
Fold change, G6PD (10 mg/ml, 24 h, vs control, Affymetrix probe set 11716293_x_at): 2.48
Fold change, INSIG1 (10 mg/ml, 24 h, vs control, Affymetrix probe set 11716338_a_at): 2.73
Fold change, INSIG1 (10 mg/ml, 24 h, vs control, Affymetrix probe set 11716339_a_at): 3.73
Fold change, NSMAF (10 mg/ml, 24 h, vs control, Affymetrix probe set 11717214_s_at): 2.01
Fold change, LSS (10 mg/ml, 24 h, vs control, Affymetrix probe set 11717620_a_at): 2.14
Fold change, ASAH1 (10 mg/ml, 24 h, vs control, Affymetrix probe set 11717722_s_at): 2.54
Fold change, EBP (10 mg/ml, 24 h, vs control, Affymetrix probe set 11717859_a_at): 2.48
Fold change, COL4A3BP (10 mg/ml, 24 h, vs control, Affymetrix probe set 11721537_a_at): 2.46
Fold change, COL4A3BP (10 mg/ml, 24 h, vs control, Affymetrix probe set 11721538_a_at): 2.19
Fold change, HTRA2 (10 mg/ml, 24 h, vs control, Affymetrix probe set 11726630_a_at): 2.06
Fold change, LSS (10 mg/ml, 24 h, vs control, Affymetrix probe set 11731324_a_at): 3.13
Fold change, CLN3 (10 mg/ml, 24 h, vs control, Affymetrix probe set 11731408_x_at): 3.73
Fold change, NSMAF (10 mg/ml, 24 h, vs control, Affymetrix probe set 11740559_a_at): 2.34
Fold change, NSMAF (10 mg/ml, 24 h, vs control, Affymetrix probe set 11740560_x_at): 2.19
Fold change, ASAH1 (10 mg/ml, 24 h, vs control, Affymetrix probe set 11740580_at): 2.44
Fold change, ASAH1 (10 mg/ml, 24 h, vs control, Affymetrix probe set 11740581_s_at): 2.41
Fold change, ASAH1 (10 mg/ml, 24 h, vs control, Affymetrix probe set 11740582_a_at): 3.46
Fold change, ASAH1 (10 mg/ml, 24 h, vs control, Affymetrix probe set 11743547_a_at): 3.97
Fold change, TM7SF2 (10 mg/ml, 24 h, vs control, Affymetrix probe set 11744179_x_at): 2.10
Fold change, CLN3 (10 mg/ml, 24 h, vs control, Affymetrix probe set 11744874_x_at): 3.98
Fold change, POR (10 mg/ml, 24 h, vs control, Affymetrix probe set 11746973_x_at): 3.22
Fold change, CLN3 (10 mg/ml, 24 h, vs control, Affymetrix probe set 11747203_x_at): 2.97
Fold change, PPP2R1A (10 mg/ml, 24 h, vs control, Affymetrix probe set 11747739_a_at): 2.33
Fold change, PPP2R1A (10 mg/ml, 24 h, vs control, Affymetrix probe set 11747740_x_at): 2.66
Fold change, TM7SF2 (10 mg/ml, 24 h, vs control, Affymetrix probe set 11748279_s_at): 2.46
Fold change, POR (10 mg/ml, 24 h, vs control, Affymetrix probe set 11748368_x_at): 3.37
Fold change, CLN3 (10 mg/ml, 24 h, vs control, Affymetrix probe set 11748869_a_at): 3.24
Fold change, CLN3 (10 mg/ml, 24 h, vs control, Affymetrix probe set 11748870_x_at): 3.33
Fold change, EBP (10 mg/ml, 24 h, vs control, Affymetrix probe set 11749332_x_at): 2.22
Fold change, COL4A3BP (10 mg/ml, 24 h, vs control, Affymetrix probe set 11749683_a_at): 2.62
Fold change, DHCR24 (10 mg/ml, 24 h, vs control, Affymetrix probe set 11751337_a_at): 2.11
Fold change, DHCR24 (10 mg/ml, 24 h, vs control, Affymetrix probe set 11751338_x_at): 2.31
Fold change, PLA2G15 (10 mg/ml, 24 h, vs control, Affymetrix probe set 11751383_a_at): 2.52
Fold change, G6PD (10 mg/ml, 24 h, vs control, Affymetrix probe set 11752486_a_at): 3.12
Fold change, CLN3 (10 mg/ml, 24 h, vs control, Affymetrix probe set 11753053_x_at): 3.08
Fold change, PLA2G15 (10 mg/ml, 24 h, vs control, Affymetrix probe set 11755396_a_at): 3.26
Fold change, CLN3 (10 mg/ml, 24 h, vs control, Affymetrix probe set 11756016_x_at): 2.80
Fold change, HTRA2 (10 mg/ml, 24 h, vs control, Affymetrix probe set 11756421_x_at): 2.15
Fold change, POR (10 mg/ml, 24 h, vs control, Affymetrix probe set 11757517_x_at): 2.16
Fold change, COL4A3BP (10 mg/ml, 24 h, vs control, Affymetrix probe set 11758133_s_at): 2.04
REadj2, CYP51A1///LRRD1 [1]: 2314.08
REadj2, DHCR7 [1]: 1204.72
REadj2, HMGCS1 [1]: 1284.34
REadj2, HSD17B7 [1]: 166.42
REadj2, MVD [1]: 530.60
REadj2, SC5D [1]: 537.03
REadj2, SREBF1 [1]: 456.21
REadj2, G6PD (relative expression adjusted to detection limit (<20), 10 mg/ml, 24 h, Affymetrix probe set 11716292_a_at): 438.70
REadj2, G6PD (relative expression adjusted to detection limit (<20), 10 mg/ml, 24 h, Affymetrix probe set 11716293_x_at): 290.47
REadj2, INSIG1 (relative expression adjusted to detection limit (<20), 10 mg/ml, 24 h, Affymetrix probe set 11716338_a_at): 1272.02
REadj2, INSIG1 (relative expression adjusted to detection limit (<20), 10 mg/ml, 24 h, Affymetrix probe set 11716339_a_at): 1678.67
REadj2, EBP (relative expression adjusted to detection limit (<20), 10 mg/ml, 24 h, Affymetrix probe set 11717859_a_at): 1008.77
REadj2, HTRA2 (relative expression adjusted to detection limit (<20), 10 mg/ml, 24 h, Affymetrix probe set 11726630_a_at): 252.64
REadj2, TM7SF2 (relative expression adjusted to detection limit (<20), 10 mg/ml, 24 h, Affymetrix probe set 11744179_x_at): 62.22
REadj2, TM7SF2 (relative expression adjusted to detection limit (<20), 10 mg/ml, 24 h, Affymetrix probe set 11748279_s_at): 100.08
REadj2, EBP (relative expression adjusted to detection limit (<20), 10 mg/ml, 24 h, Affymetrix probe set 11749332_x_at): 812.08
REadj2, DHCR24 (relative expression adjusted to detection limit (<20), 10 mg/ml, 24 h, Affymetrix probe set 11751337_a_at): 176.26
REadj2, DHCR24 (relative expression adjusted to detection limit (<20), 10 mg/ml, 24 h, Affymetrix probe set 11751338_x_at): 345.60
REadj2, PLA2G15 (relative expression adjusted to detection limit (<20), 10 mg/ml, 24 h, Affymetrix probe set 11751383_a_at): 103.53
REadj2, G6PD (relative expression adjusted to detection limit (<20), 10 mg/ml, 24 h, Affymetrix probe set 11752486_a_at): 220.41
REadj2, PLA2G15 (relative expression adjusted to detection limit (<20), 10 mg/ml, 24 h, Affymetrix probe set 11755396_a_at): 177.48
REadj2, HTRA2 (relative expression adjusted to detection limit (<20), 10 mg/ml, 24 h, Affymetrix probe set 11756421_x_at): 227.59
